One data set relates to lung. Kind of data set: Biodistribution by gamma camera with technicium Tc-99 m. The format is in vivo, mice. As to conditions: Tc-99 m given 30 min after injection. As for the experimental part: Four groups of six male F1 hybrid mice (C57BL/6X DBA/2) 6-8 weeks old (20-25g body weight) were used for the study. Group A received unconjugated cis-Platinum; the second group, B, received cis-Platinum conjugated with the organ-specific vectoring reagent macroaggregated albumin (MAA). Group C received cis-Platinum conjugated with colloidal sulfur particles. Group D was injected with MAA alone, with no cis-Platinum conjugated or unconjugated, and served as controls. Three additional mice were used as normal untreated controls.
(§1) All experimental animals were injected intravenously (IV) with 0.5 mg doses of cis-Platinum to a final concentration of […] body weight, maximum volume 0.2 mL/mouse. The above protocol was used in Examples II-VI. In Examples VIII and IX, 8 mg/kg doses were administered intravenously.
Thirty minutes after injecting the mice with either agent, one millicurie of technicium Tc-99 m was injected IV and the mice placed under a gamma camera to trace the cis-Platinum.
Similar patterns of activity were seen when both groups of mice were injected after three days.

The subject of the next data set is Colon 38 tumors. Description: Antitumor tests, in vitro. Format: cell-based, murine. As to conditions: Colon 38, in vitro, 21 days. How it is done: Lewis lung murine tumors of the biological type lung carcinoma were implanted subcutaneously in the group B C57BL/6 mice. Colon 38 of the histological type colon carcinoma was implanted in group C57BL/6. Three mice from group A were implanted with Lewis lung tumors and the remaining three were implanted with colon 38 tumors subcutaneously. Three mice from control group D were implanted with Lewis lung tumors and three with colon 38 tumors.
The antitumor activity of both solutions was tested in vitro. Colon 38 tumors were used for in vitro screening of the antitumor effect. Tumors were place in 10ml solution of each of the agents. The tumors were removed after 21 days of culture growth and examined for weight loss and shrinkage in size.

The next data set deals with liver. Kind of data set: Liver function tests on blood samples. Format: in vivo, mice. Conditions: after ten days of treatment. As for the experimental part:
Four groups of six male F1 hybrid mice (C57BL/6X DBA/2) 6-8 weeks old (20-25g body weight) were used for the study. […] Three additional mice were used as normal untreated controls.
In Examples VIII and IX, 8 mg/kg doses were administered intravenously.
The total number of nucleated cells, that is, the total number of total white blood cells, was counted with a Coulter counter and a blood film was prepared simultaneously for lymphocyte-to-neutrophil (L/N) ratio.
Liver function tests were performed on blood samples after ten days of treatment with the solutions (see Example III). Four doses were administered each day.

Another data set has as its system L1210 leukemia cells. Kind of data set: Effect on in vivo tumor cells (L1210 leukemia). Conditions: 8 mg/kg iv. On the set-up: species or system DBA mice. How it is done: as §1
10^4 L1210 leukemia cells were transplanted intravenously (iv) into DBA mice. Three days later the animals received 8 mg/kg cis-Platinum in saline or 8 mg/kg cisplatinum-conjugate administered (iv) (3 animals/group)

For a further data set, the system named is K1210 leukemia cells. Description: Effect on mice implanted with leukemia cells. Format: in vivo, DBF mice. Conditions: 8 mg/kg i.v. As for the experimental part:
as §1
DBF mice were planted intraperitoneally with 10^4 K1210 leukemia cells. Three days later, 8 mg/kg of cis-Platinum in saline and cis-Platinum conjugate preparation was given intravenously via a tail vein.

For a further data set, the system named is bones. Kind of data set: Progesterone delivery to bones (APAAP staining). Format: in vivo, mice. As for the experimental part:
Thirty-nine mg of finely divided progesterone were added to 2.4 ml of linking agent containing Composition C and injected into mice (see Example XII). The drug was examined for its presence in bones after 2days by taking sections of bone from ribs and staining the sections with monoclonal antibodies to progesterone using the […] labeling system as described by Cordell et al. in J. Histochem. Cytochem. 32:219 (1984).

Data set [1] in a line: Drug release in vitro by column elution method. The format is physicochemical. Conditions: after 14 hrs, 37° C, saline 0.4 ml/min. As for the experimental part: Using the conjugate prepared in Example XXVI, the drug release was estimated in vitro by the column elution method described below.
2.0 ml of deionized water was added to 11.6 mg of dry (lyophilized) conjugate as prepared in Example XXVI. The slurry was pipetted into 140 ×7 mm glass columns. The ends of each of the columns were filled with chromatographic caps packed with glass wool. The ends were then attached to threaded zero-volume collectors and connected to 10 mm 1:0 teflon tubing. The columns were placed in a circulating water bath at 37 ° C. Saline was pumped through columns at 0.4 ml/min flow rate with an HPLC pump (ALTEX 110A). Fractions were collected as a function of time at 4° C. and analyzed by uv/vis spectroscopy method. Results: Approximately 20% drug release was found in samples taken after 14 hrs.

For the molecule `N.N.[Cl-].[Cl-].[Pt+2]` [cis-Pt, cis-Platinum (II) Diammine Dichloride], the “distribution of the radioisotope in organs in the abdomen” value in the data set with lung was “even distribution of the radioisotope in all organs in the abdomen”. In the data set with Colon 38 tumors, this molecule showed a Shrinkage of 41% and a Weight loss of 63%. In the data set on liver, the Prothrombin clotting time came to 16, the SGOT turned out to be 120, the SGPT was found to be 112 and the Serum bilirubin was 3.8. Moreover, the “Incr. Life Span (ILS)” value in the data set with L1210 leukemia cells was found to be 111%. Further, the “% ILS” value in the data set with K1210 leukemia cells is on record as 80%.

For the molecule progesterone, the “delivery to the bones” value in the data set with bones (after 2 days, sections of rib bone) is listed as “effectively delivered to the bones”. In the data set with bones (mouse, in vivo), the “retention in bones as an active molecule” value is listed as “up to 21 days”. For the same molecule, the drug release result in data set [1] was “Approximately 20%”.

Values taken from patent US5225182A, “Vectored drug delivery system using a cephaloplastin linking agent and a methed of using the system” (priority 1991, dated 1993).
